Experimental data: US11492347B2 (ENYO PHARMA, priority 2018, dated 2022)
pIC50: −log10 of the molar value.

What follows are compounds tested on H1N1 (influenza A/New Caledonia/20/99) (assay: microbe, parasite or virus in culture). Conditions: H1N1, A549, 48 h.
Format: cell-based

| SMILES | pIC50 |
| --- | --- |
| CC1(C)Cc2c(sc(NC(=O)c3ccc(NC4CCCOC4)cc3)c2C(=O)O)C(C)(C)C1 (stereo not shown) [Compound #142, 5,5,7,7-Tetramethyl-2-[[4-(tetrahydropyran-3-ylamino)benzoyl]amino]-4,6-dihydrobenzothiophene-3-carboxylic acid] | 8.19 |
| O=C(Nc1sc2c(c1C(=O)O)CCC1(CC1)C2)c1ccccc1 [Compound #29, 2-Benzamidospiro[5,7-dihydro-4H-benzothiophene-6,1′-cyclopropane]-3-carboxylic acid] | 7.05 |
| CC1(C)CCc2sc(NC(=O)c3cnc(N4CCOCC4)nc3)c(C(=O)O)c2C1 [#209, 5,5-Dimethyl-2-[(2-morpholinopyrimidine-5-carbonyl)amino]-6,7-dihydro-4H-benzothiophene-3-carboxylic acid] | 6.09 |
| CN1CCN(c2ccc(C(=O)Nc3sc4c(c3C(=O)O)CC(C)(C)CC4(C)C)cc2)CC1 [Compound #80, 5,5,7,7-Tetramethyl-2-[[4-(4-methylpiperazin-1-yl)benzoyl]amino]-4,6-dihydrobenzothiophene-3-carboxylic acid] | 6.51 |
| CC1(C)CCc2sc(NC(=O)c3ccc(N4CCOCC4)nn3)c(C(=O)O)c2C1 [#227, 5,5-Dimethyl-2-[(6-morpholinopyridazine-3-carbonyl)amino]-6,7-dihydro-4H-benzothiophene-3-carboxylic acid] | 5.86 |
| COc1cccc(C(=O)Nc2sc3c(c2C(=O)O)CCC(C)(C)C3)c1 [Compound #21, 2-[(3-Methoxybenzoyl)amino]-6,6-dimethyl-5,7-dihydro-4H-benzothiophene-3-carboxylic acid] | 7.25 |
| COC1CN(c2ccc(C(=O)Nc3sc4c(c3C(=O)O)C(C)CC(C)(C)C4)cc2)C1 (stereo not shown) [Compound #153, 2-[[4-(3-Methoxyazetidin-1-yl)benzoyl]amino]-4,6,6-trimethyl-5,7-dihydro-4H-benzothiophene-3-carboxylic acid] | 7.85 |
| CC1(C)CCc2c(sc(NC(=O)c3ccc(N4CCOCC4)nc3)c2C(=O)O)C1 [#204, 6,6-Dimethyl-2-[(6-morpholinopyridine-3-carbonyl)amino]-5,7-dihydro-4H-benzothiophene-3-carboxylic acid] | 6.59 |
| CC1CC(C)(C)Cc2sc(NC(=O)c3ccccc3)c(C(=O)O)c21 (stereo not shown) [Compound #44, 2-Benzamido-4,6,6-trimethyl-5,7-dihydro-4H-benzothiophene-3-carboxylic acid] | 7.05 |
| CC1(C)Cc2c(sc(NC(=O)c3ccc(NCC4CCCCO4)cc3)c2C(=O)O)C(C)(C)C1 (stereo not shown) [#166, 5,5,7,7-Tetramethyl-2-[[4-(tetrahydropyran-2-ylmethylamino)benzoyl]amino]-4,6-dihydrobenzothiophene-3-carboxylic acid] | 8.17 |
| CC1(C)Cc2c(sc(NC(=O)c3ccc(OC4CCOCC4)cc3)c2C(=O)O)C(C)(C)C1 [#170, 5,5,7,7-Tetramethyl-2-[(4-tetrahydropyran-4-yloxybenzoyl)amino]-4,6-dihydrobenzothiophene-3-carboxylic acid] | 7.46 |
| CC1(C)CCc2c(sc(NC(=O)c3ccc(F)cc3)c2C(=O)O)C1 [Compound #19, 2-[(4-Fluorobenzoyl)amino]-6,6-dimethyl-5,7-dihydro-4H-benzothiophene-3-carboxylic acid] | 6.96 |
| CC1(C)CCc2c(sc(NC(=O)c3cccc(N4CCOCC4)c3)c2C(=O)O)C1 [#203, 6,6-Dimethyl-2-[(3-morpholinobenzoyl)amino]-5,7-dihydro-4H-benzothiophene-3-carboxylic acid] | 6.89 |
| CC1(C)CCc2sc(NC(=O)c3ccc(N4CCOCC4)cc3)c(C(=O)O)c21 [Compound #41, 4,4-Dimethyl-2-[(4-morpholinobenzoyl)amino]-5,6-dihydrocyclopenta[b]thiophene-3-carboxylicacid] | 6.98 |
| CC1(C)CCc2c(sc(NC(=O)c3ccnc(N4CCOCC4)c3)c2C(=O)O)C1 [#222, 6,6-Dimethyl-2-[(2-morpholinopyridine-4-carbonyl)amino]-5,7-dihydro-4H-benzothiophene-3-carboxylic acid] | 7.29 |
| CC1(C)Cc2c(sc(NC(=O)c3ccc(NC4CCCCC4)cc3)c2C(=O)O)C(C)(C)C1 [Compound #149, 2-[[4-(Cyclohexylamino)benzoyl]amino]-5,5,7,7-tetramethyl-4,6-dihydrobenzothiophene-3-carboxylic acid] | 8.15 |
| CC1(C)CCc2sc(NC(=O)c3ccc(Br)cc3)c(C(=O)O)c2C1 [Compound #154, 2-[(4-Bromobenzoyl)amino]-5,5-dimethyl-6,7-dihydro-4H-benzothiophene-3-carboxylic acid] | 7.52 |
| CC1(C)Cc2c(sc(NC(=O)c3ccc(OCC4COC4)cc3)c2C(=O)O)C(C)(C)C1 [#167, 5,5,7,7-Tetramethyl-2-[[4-(oxetan-3-ylmethoxy)benzoyl]amino]-4,6-dihydrobenzothiophene-3-carboxylic acid] | 6.96 |
| CC1(C)Cc2c(sc(NC(=O)c3ccc(NCC4COC4)cc3)c2C(=O)O)C(C)(C)C1 [Compound #59, 5,5,7,7-Tetramethyl-2-[[4-(oxetan-3-ylmethylamino)benzoyl]amino]-4,6-dihydrobenzothiophene-3-carboxylic acid] | 8.00 |
| CC1CC(C)(C)Cc2sc(NC(=O)c3ccc(N(C)C4CCOCC4)cc3)c(C(=O)O)c21 (stereo not shown) [#171] | 8.20 |
| CC1(C)Cc2c(sc(NC(=O)c3ccc(N4CCOCC4)nc3)c2C(=O)O)C(C)(C)C1 [#201, 5,5,7,7-Tetramethyl-2-[(6-morpholinopyridine-3-carbonyl)amino]-4,6-dihydrobenzothiophene-3-carboxylic acid] | 6.82 |
| COCCOc1ccc(C(=O)Nc2sc3c(c2C(=O)O)CC(C)(C)CC3(C)C)cc1 [#168, 2-[[4-(2-Methoxyethoxy)benzoyl]amino]-5,5,7,7-tetramethyl-4,6-dihydrobenzothiophene-3-carboxylic acid] | 7.63 |
| COc1ccc(C(=O)Nc2sc3c(c2C(=O)O)CCC(C)(C)C3)nc1 [Compound #25, 2-[(5-Methoxypyridine-2-carbonyl)amino]-6,6-dimethyl-5,7-dihydro-4H-benzothiophene-3-carboxylic acid] | 7.05 |
| CC1CC(C)(C)c2sc(NC(=O)c3ccccc3)c(C(=O)O)c21 (stereo not shown) [Compound #43, 2-Benzamido-4,6,6-trimethyl-4,5-dihydrocyclopenta[b]thiophene-3-carboxylic acid] | 6.55 |
| CC1(C)CCc2sc(NC(=O)c3ccn(CC4CCOCC4)n3)c(C(=O)O)c2C1 [#228, 5,5-Dimethyl-2-[[1-(tetrahydropyran-4-ylmethyl)pyrazole-3-carbonyl]amino]-6,7-dihydro-4H-benzothiophene-3-carboxylic acid] | 6.05 |
| COCCNc1ccc(C(=O)Nc2sc3c(c2C(=O)O)CC(C)(C)CC3)cc1 [#173, 2-[[4-(2-Methoxyethylamino)benzoyl]amino]-5,5-dimethyl-6,7-dihydro-4H-benzothiophene-3-carboxylic acid] | 7.62 |
| CC1(C)CCCc2sc(NC(=O)c3ccccc3)c(C(=O)O)c21 [Compound #42, 2-Benzamido-4,4-dimethyl-6,7-dihydro-5H-benzothiophene-3-carboxylic acid] | 6.72 |
| CC1(C)Cc2c(sc(NC(=O)c3ccccn3)c2C(=O)O)C(C)(C)C1 [Compound #90, 5,5,7,7-Tetramethyl-2-(pyridine-2-carbonylamino)-4,6-dihydrobenzothiophene-3-carboxylic acid] | 6.22 |
